In ChEMBL document CHEMBL1128305, “Metabotropic glutamate receptors: novel targets for drug development” (J Med Chem, 1995):
Several values for one entry are separate records, joined by “and”; a condition that tells them apart may be missing. Equal entries are not always repeated.

Columns and labels:
[1] = biological target: Metabotropic glutamate receptor 2 (Homo sapiens, UniProt Q14416); assay: Concentration for half maximal activation of metabotropic glutamate mGluR2 in human
[2] = biological target: Metabotropic glutamate receptor 2 (Rattus norvegicus, UniProt P31421); assay: Concentration for half maximal activation of metabotropic glutamate mGluR2 in rat
Chain of Metabotropic glutamate receptor 2 (Rattus norvegicus, UniProt P31421) (P31421 whole entry): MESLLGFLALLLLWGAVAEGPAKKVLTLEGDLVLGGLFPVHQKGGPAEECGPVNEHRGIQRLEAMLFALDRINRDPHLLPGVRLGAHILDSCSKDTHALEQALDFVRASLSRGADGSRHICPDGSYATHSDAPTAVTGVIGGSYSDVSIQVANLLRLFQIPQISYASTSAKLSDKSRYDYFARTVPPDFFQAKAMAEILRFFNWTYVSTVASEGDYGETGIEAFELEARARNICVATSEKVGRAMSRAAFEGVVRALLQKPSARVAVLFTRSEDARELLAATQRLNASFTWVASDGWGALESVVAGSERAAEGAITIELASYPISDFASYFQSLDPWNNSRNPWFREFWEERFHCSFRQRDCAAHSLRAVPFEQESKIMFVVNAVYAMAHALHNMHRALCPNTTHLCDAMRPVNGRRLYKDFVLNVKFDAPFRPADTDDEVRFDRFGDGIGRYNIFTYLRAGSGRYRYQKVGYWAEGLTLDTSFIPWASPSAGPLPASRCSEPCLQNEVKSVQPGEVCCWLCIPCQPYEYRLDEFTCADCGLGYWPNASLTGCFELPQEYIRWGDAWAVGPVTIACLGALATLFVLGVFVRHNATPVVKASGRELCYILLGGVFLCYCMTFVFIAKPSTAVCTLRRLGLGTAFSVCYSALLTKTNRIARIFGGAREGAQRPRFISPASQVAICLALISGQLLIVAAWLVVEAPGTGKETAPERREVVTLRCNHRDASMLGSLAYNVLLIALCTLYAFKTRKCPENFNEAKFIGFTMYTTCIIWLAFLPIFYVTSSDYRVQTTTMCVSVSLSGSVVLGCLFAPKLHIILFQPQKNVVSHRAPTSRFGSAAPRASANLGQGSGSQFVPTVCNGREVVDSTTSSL

[3] = biological target: T1, Metabotropic glutamate receptor 1 (Rattus norvegicus, UniProt P23385); assay: Concentration for half maximal activation of metabotropic glutamate mGluR1a in rat
[4] = biological target: Metabotropic glutamate receptor 4 (Rattus norvegicus, UniProt P31423); assay: Concentration for half maximal activation of metabotropic glutamate mGluR4a in rat
[5] = biological target: Metabotropic glutamate receptor 3 (Rattus norvegicus, UniProt P31422); assay: Concentration for half maximal activation of metabotropic glutamate mGluR3 in rat
[6] = biological target: Metabotropic glutamate receptor 6 (Rattus norvegicus, UniProt P35349); assay: Concentration for half maximal activation of metabotropic glutamate mGluR6 in rat
Chain of Metabotropic glutamate receptor 6 (P35349 whole entry): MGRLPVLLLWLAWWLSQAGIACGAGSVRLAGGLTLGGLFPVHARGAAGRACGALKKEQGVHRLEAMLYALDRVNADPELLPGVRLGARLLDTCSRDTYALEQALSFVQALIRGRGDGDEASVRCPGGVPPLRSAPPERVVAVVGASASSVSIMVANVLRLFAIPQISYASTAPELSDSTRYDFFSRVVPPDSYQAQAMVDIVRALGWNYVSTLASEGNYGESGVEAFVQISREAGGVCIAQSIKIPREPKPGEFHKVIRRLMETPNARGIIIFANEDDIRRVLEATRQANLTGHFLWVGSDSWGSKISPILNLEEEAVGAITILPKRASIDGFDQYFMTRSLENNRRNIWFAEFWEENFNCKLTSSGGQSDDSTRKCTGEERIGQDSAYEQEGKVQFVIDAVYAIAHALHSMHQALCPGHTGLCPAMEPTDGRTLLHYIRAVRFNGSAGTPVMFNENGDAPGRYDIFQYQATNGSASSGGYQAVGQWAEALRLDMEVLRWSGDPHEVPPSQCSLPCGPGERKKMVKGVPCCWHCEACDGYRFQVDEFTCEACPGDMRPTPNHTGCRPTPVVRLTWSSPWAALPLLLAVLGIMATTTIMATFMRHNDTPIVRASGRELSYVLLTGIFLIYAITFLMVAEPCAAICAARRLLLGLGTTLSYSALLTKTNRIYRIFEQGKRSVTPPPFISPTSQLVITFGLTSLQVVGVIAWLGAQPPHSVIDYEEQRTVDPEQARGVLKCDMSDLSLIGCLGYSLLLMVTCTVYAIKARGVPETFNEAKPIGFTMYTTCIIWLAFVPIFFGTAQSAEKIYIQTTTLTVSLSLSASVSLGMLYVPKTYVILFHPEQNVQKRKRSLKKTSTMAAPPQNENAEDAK

[7] = biological target: Metabotropic glutamate receptor 7 (Homo sapiens, UniProt Q14831); assay: Concentration for half maximal activation of metabotropic glutamate mGluR7 in human
[8] = biological target: Metabotropic glutamate receptor 4 (Homo sapiens, UniProt Q14833); assay: Concentration for half maximal activation of metabotropic glutamate mGluR4a in human
Chain of Metabotropic glutamate receptor 4 (Homo sapiens, UniProt Q14833) (Q14833 whole entry): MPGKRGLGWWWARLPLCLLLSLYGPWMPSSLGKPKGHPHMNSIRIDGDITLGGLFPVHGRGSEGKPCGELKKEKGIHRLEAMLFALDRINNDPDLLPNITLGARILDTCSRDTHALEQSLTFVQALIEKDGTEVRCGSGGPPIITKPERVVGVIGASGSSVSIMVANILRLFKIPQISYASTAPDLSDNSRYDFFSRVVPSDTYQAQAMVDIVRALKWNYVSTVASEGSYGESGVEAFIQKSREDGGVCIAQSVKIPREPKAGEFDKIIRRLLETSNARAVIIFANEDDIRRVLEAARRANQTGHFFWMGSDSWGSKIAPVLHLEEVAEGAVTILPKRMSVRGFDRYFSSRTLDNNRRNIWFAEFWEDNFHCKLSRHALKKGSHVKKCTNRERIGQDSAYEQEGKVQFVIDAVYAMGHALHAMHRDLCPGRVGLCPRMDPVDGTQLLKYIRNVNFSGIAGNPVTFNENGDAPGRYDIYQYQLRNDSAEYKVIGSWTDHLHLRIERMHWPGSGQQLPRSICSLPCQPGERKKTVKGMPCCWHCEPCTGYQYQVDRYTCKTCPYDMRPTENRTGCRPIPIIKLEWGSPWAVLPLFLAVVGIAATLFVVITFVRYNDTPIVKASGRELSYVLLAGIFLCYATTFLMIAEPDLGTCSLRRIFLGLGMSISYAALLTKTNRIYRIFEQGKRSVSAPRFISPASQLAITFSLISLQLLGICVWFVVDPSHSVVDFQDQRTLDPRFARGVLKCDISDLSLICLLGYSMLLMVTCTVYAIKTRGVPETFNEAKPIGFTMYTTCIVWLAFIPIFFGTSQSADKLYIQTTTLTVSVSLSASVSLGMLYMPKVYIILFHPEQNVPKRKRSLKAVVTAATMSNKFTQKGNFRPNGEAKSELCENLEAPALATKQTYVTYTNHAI

[9] = biological target: T1, Metabotropic glutamate receptor 1; assay: Concentration for half maximal activation of metabotropic glutamate mGluR1c in rat
[10] = biological target: Metabotropic glutamate receptor 7 (Rattus norvegicus, UniProt P35400); assay: Concentration for half maximal activation of metabotropic glutamate mGluR7 in rat
[11] = biological target: Metabotropic glutamate receptor 8 (Mus musculus, UniProt P47743); assay: Concentration for half maximal activation of metabotropic glutamate mGluR8 in mouse; assay type: single protein
Chain of Metabotropic glutamate receptor 8 (P47743 whole entry): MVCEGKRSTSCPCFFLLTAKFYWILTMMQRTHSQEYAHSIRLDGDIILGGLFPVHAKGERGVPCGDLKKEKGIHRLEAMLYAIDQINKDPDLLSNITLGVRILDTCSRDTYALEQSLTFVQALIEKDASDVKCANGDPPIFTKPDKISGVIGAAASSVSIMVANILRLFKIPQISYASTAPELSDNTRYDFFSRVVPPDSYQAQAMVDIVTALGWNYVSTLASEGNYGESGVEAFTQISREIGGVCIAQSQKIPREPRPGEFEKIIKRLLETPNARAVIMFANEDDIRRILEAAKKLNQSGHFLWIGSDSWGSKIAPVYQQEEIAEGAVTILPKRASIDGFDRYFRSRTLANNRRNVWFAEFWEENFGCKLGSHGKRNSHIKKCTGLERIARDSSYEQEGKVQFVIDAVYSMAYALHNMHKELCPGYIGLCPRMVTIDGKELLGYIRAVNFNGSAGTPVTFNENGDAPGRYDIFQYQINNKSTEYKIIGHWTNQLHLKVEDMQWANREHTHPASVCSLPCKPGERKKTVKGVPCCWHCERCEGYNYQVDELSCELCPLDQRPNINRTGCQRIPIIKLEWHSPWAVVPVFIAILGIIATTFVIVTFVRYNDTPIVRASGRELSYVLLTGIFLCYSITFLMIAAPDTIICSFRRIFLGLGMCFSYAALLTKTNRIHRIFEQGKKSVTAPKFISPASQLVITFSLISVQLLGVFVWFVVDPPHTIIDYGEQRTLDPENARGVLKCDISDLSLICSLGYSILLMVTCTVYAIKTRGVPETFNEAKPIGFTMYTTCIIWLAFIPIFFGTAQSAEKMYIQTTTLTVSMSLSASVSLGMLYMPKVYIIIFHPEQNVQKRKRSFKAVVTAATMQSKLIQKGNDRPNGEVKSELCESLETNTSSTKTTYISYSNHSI

[12] = biological target: T2, Metabotropic glutamate receptor 5 (Rattus norvegicus, UniProt P31424); assay: Concentration for half maximal activation of metabotropic glutamate mGluR5a in rat
T2 sequence (P31424 whole entry): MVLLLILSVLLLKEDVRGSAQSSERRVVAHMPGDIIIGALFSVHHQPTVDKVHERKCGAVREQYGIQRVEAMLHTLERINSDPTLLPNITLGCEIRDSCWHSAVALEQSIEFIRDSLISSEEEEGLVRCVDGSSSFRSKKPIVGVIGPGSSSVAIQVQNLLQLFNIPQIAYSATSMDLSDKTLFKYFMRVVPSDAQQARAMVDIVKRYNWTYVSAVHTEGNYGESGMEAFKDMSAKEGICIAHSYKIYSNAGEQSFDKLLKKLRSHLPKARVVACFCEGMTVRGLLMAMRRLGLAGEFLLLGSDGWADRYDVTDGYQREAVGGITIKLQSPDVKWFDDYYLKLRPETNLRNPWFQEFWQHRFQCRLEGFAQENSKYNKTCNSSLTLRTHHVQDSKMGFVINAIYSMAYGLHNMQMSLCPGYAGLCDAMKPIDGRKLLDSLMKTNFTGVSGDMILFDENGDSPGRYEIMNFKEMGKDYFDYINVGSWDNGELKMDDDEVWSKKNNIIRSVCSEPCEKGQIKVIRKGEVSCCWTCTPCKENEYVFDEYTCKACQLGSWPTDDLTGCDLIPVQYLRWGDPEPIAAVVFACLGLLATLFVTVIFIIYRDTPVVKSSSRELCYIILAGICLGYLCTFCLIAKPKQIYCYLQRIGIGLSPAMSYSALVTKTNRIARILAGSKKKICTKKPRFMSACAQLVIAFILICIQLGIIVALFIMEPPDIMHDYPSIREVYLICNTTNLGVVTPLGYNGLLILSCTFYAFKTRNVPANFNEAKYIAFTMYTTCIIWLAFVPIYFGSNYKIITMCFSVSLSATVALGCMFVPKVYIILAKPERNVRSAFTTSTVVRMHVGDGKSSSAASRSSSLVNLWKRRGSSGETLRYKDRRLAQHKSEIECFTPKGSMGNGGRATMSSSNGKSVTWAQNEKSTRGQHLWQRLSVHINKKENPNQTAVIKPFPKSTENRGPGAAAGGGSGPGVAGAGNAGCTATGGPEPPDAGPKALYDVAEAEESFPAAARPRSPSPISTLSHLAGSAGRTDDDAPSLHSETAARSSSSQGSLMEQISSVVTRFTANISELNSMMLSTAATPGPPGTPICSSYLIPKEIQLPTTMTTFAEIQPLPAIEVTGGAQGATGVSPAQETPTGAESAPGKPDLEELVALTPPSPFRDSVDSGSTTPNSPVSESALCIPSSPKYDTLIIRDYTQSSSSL

[13] = biological target: T1, Metabotropic glutamate receptor 1; assay: Concentration for half maximal activation of metabotropic glutamate mGluR1b in rat
[14] = biological target: T2, Metabotropic glutamate receptor 5; assay: Concentration for half maximal activation of metabotropic glutamate mGluR5b in rat
[15] = biological target: Metabotropic glutamate receptor 5 (Homo sapiens, UniProt P41594); assay: Concentration for half maximal activation of metabotropic glutamate mGluR5a in human

SMILES	EC50 [1] [µM]	EC50 [2]	EC50 [3] [µM]	EC50 [4]	EC50 [5] [µM]	EC50 [6] [µM]	EC50 [7] [µM]	EC50 [8] [µM]	EC50 [9] [µM]	EC50 [10]	EC50 [11] [µM]	EC50 [12]	EC50 [13] [µM]	EC50 [14] [µM]	EC50 [15] [µM]
N[C@H](C(=O)O)[C@H]1C[C@@H]1C(=O)O	0.38	0.75 µM	–	–	–	–	–	–	–	–	–	–	–	–	–
N[C@H](C(=O)O)C1[C@@H](C(=O)O)[C@@H]1C(=O)O (stereo partly specified)	–	0.3 µM	> 1000	> 1000 µM	0.3	–	–	–	–	–	–	–	–	–	–
N[C@@H](CCP(=O)(O)O)C(=O)O	> 1000	> 1000 µM	–	0.5 µM and 1.2 µM	–	0.9	200	0.2	> 1000	160 µM and 500 µM	0.4	–	–	–	–
N[C@@]1(C(=O)O)CC[C@@H](C(=O)O)C1	12.1	5 µM and 7.7 µM	–	> 100 µM and 39 µM	8	> 200	> 1000	–	–	> 1000 µM	> 100	50 µM	–	–	–
N[C@@H](COP(=O)(O)O)C(=O)O [DEXFOSFOSERINE]	–	–	–	4 µM	–	2.7	< 200	1.3	–	160 µM	–	–	–	–	–
N[C@@H](CCC(=O)O)C(=O)O [GLUTAMIC ACID]	–	–	–	5 µM and 3.2 µM	3	16	> 500	–	–	1000 µM and 1300 µM	0.022	–	–	–	–
N[C@H](C(=O)O)c1cc(=O)[nH]o1 [IBOTENIC ACID]	–	–	6	590 µM	10	1000	–	–	60	–	> 100	10 µM and 8 µM	44	8	–
N[C@@H](Cn1oc(=O)[nH]c1=O)C(=O)O [QUISQUALATE]	> 1000	> 1000 µM	–	> 100 µM and 129 µM	40	1000	> 1000	> 500	–	> 1000 µM	> 100	0.3 µM and 0.2 µM	–	0.2	0.15
